Earlier results, collected in patent US20260108515A1, “A RAPIDLY DISINTEGRATING TABLET OF ROSUVASTATIN AND ITS PROCESS OF PREPARATION” (NOVUMGEN LIMITED, priority 2022, published 2026).

Assays:
[1] = in vivo
[2] = high permeability and low solubility
CYP3A4 = CYP3A4 (Homo sapiens, UniProt P08684)
[3] = system: high-density lipoprotein—Cholesterol; settings: patients with raised triglyceride levels

Sequence of CYP3A4 (P08684 whole entry): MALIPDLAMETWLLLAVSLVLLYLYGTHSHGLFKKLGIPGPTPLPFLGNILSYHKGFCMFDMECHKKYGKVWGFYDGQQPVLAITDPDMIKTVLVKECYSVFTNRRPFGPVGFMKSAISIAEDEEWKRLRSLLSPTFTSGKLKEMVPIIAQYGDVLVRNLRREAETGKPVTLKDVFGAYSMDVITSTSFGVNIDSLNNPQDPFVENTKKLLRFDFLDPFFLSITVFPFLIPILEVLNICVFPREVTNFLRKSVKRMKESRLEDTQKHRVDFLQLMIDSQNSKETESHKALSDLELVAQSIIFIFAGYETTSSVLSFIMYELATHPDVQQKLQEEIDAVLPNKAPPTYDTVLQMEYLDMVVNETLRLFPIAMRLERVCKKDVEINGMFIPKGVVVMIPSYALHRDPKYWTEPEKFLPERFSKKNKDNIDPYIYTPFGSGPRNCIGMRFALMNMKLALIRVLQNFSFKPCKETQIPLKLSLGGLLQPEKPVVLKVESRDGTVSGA

For CC(C)c1nc(N(C)S(C)(=O)=O)nc(-c2ccc(F)cc2)c1/C=C/[C@@H](O)C[C@@H](O)CC(=O)O [Rosuvastatin, (E,3R,5S)-7-[4-(4-fluorophenyl)-2-[methyl(methylsulfonyl)amino]-6-propan-2-ylpyrimidin-5-yl]-3,5-dihydroxyhept-6-enoic acid], the plasma half-life [1] is given as 18 to 24 h, the “biopharmaceutics classification system (BCS) class” value [2] is given as “class II” and the metabolizing isoenzyme (CYP3A4) is given as “metabolized primarily by CYP3A4”. For the same molecule, the “raises high-density lipoprotein—Cholesterol” value [3] was 15-20%.
